# What was measured:
# [1] = for time of continuous stirring until it went into solution: 10 mg/ml in 13% w/v sulfobutyl ether β-cyclodextrin in 0.9% saline; for dissolution at a concentration of 10 mg/ml: 13% w/v sulfobutyl ether β-cyclodextrin in 0.9% saline
# [2] = test system: rats; experiment: Effect of Captisol premedication on the death rate of Althesin
# [3] = SBECD7 (13% solution) premed 5.25 mls/kg 60 s before Althesin @ 16 x AD95 (52.5 mg/kg alphaxalone iv), 10 rats
compound,measurement,setting,value
C[C@]12CC[C@@H](O)C[C@@H]1CC[C@H]1[C@@H]3CC[C@H](C(=O)CO)[C@@]3(C)CC(=O)[C@@H]12 [alphadolone],time of continuous stirring until it went into solution,[1],4 h
same,dissolution at a concentration of 10 mg/ml,[1],dissolved completely
CC(=O)[C@H]1CC[C@H]2[C@@H]3CC[C@@H]4C[C@H](O)CC[C@]4(C)[C@H]3CC[C@]12C [pregnanolone],time of continuous stirring until it went into solution,[1],4 h
same,dissolution at a concentration of 10 mg/ml,[1],dissolved incompletely
(7) sulfobutyl ether β-cyclodextrin [SBECD7],n did not die,[2]; [3],8
same,n died,[2]; [3],2
same,effect on mortality caused by alphaxalone as Althesin,[2]; premedication 60 s before 52.5 mg/kg alphaxalone as Althesin,statistically and clinically significant reduction in the mortality

# Source: patent US8975245B2, “Anaesthetic formulation” (Drawbridge Pharmaceuticals Pty Ltd, priority 2010, dated 2015)
